Measurements from patent US12382888B2, “Compositions and methods for modulating immunity in plants” (Boyce Thompson Institute for Plant Research, Inc., priority 2013, dated 2025).
Entries after “also recorded” stand apart in the source; their conditions may differ. Where two headings read alike, the source gives them in different places.

Assays:
[1] = tested on: Phytophthora infestans (US22); format: in vivo
[2] = tested on: Phytophthora infestans (US22); format: in vivo; settings: for resistance to P. infestans: root treatment, at the concentrations tested; for resistance to US22 P. infestans: at the concentration tested

CC1O[C@@H](O[C@@H](C)CCCCCCCCC(=O)O)C(O)C[C@H]1O (stereo in doubt) [ascr #18, (10R)-(3′R,5′R-dihydroxy-6′S-methyl-(2H)-tetrahydropyran-2-yloxy)-undecanoic Acid]
protection against virulent P. infestans ([1]; potato cv. Desiré, Eva or Yukon Gold, 10 nM by root immersion or foliar spray 48 hours prior): provided protection; also recorded: protects against P. infestans-induced late blight
resistance to virulent US22 P. infestans (lesion size 5 dpi) ([1]; potato cv. Désirée, root immersion 0.01 μM 48 hours before): enhanced resistance
P. infestans resistance in tomato ([2]; tomato (M82), root pretreatment with 0.01 or 1 μM ascaroside): +
resistance to P. infestans ([2]; tomato cv. M82): enhanced resistance
protection against US22 P. infestans (sporangia number, lesion size) ([2]; tomato cv. M82, roots pretreated 48 hours, 1 nM and 10 nM): strong protection
resistance to virulent US22 P. infestans ([2]; tomato cv. M82 and Rio Grande, root immersion 0.01 μM 48 hours before inoculation): enhances resistance
resistance to virulent US22 P. infestans (lesion size 5 dpi, sporangia 6 dpi) ([2]; tomato cv. Rio Grande, root immersion 0.01 μM 48 hours before): enhanced resistance
enhancement of resistance ([2]; tomato, 100 nM): reduced or lost
ascr #18 concentrations of maximal protection/resistance ([2]; tomato, P. infestans US22): 1 to 10 nM
concentration that enhanced resistance (as little as) ([2]; tomato, P. infestans US22): 10 pM
protection against P. infestans ([2]; tomato, higher concentrations): decreased

CC1O[C@@H](O[C@H](C)CCCC/C=C/C(=O)O)C(O)C[C@H]1O (stereo partly shown) [ascr #3]
resistance of M82 against P. infestans ([2]; 0.01 μM): did not have a significant effect
P. infestans resistance in tomato ([2]; in vivo): −
resistance to P. infestans ([2]; tomato cv. M82): neither ascr #3 nor oscr #9 affected resistance

C[C@H](CCC(=O)O)O[C@@H]1O[C@@H](C)[C@H](O)C[C@H]1O [ascr #9]
P. infestans resistance in tomato ([2]; in vivo): +
resistance to US22 P. infestans (lesion size, sporangia number) ([2]; tomato cv. M82, root immersion 1 μM 48 hours before, 7 dpi): enhances resistance
resistance to P. infestans ([2]; tomato cv. M82): enhanced resistance

CC1O[C@@H](O[C@H](C)CCCCCCC(=O)O)C(O)C[C@H]1O (stereo partly shown) [ascr #10]
resistance to US22 P. infestans ([2]; tomato cv. M82): not

CC1O[C@@H](O[C@H](C)CCCCCCCCC(=O)NCCO)C(O)C[C@H]1O (stereo partly shown) [easc #18]
resistance to virulent US22 P. infestans (lesion size 5 dpi, sporangia 6 dpi) ([2]; in vivo): enhanced resistance

CC1O[C@@H](OCCCCC(=O)O)C(O)C[C@H]1O (stereo partly shown) [oscr #9]
P. infestans resistance in tomato ([2]; in vivo): −
resistance to US22 P. infestans ([2]; tomato cv. M82): not
resistance to P. infestans ([2]; tomato cv. M82): neither ascr #3 nor oscr #9 affected resistance
